Assays:
M1 muscarinic receptor = target: T1, M1 muscarinic receptor (Homo sapiens, UniProt P11229); assay: Functional mobilization of intracellular calcium (FLIPR, Fluo-3), M1-CHO cells; type: cell-based; settings: compound nos. 1-454; for Emax: 100% efficacy is the maximum response obtained with the Carbachol control, read-out: M1 Efficacy; for M1 Activity: M1-CHO cells, calcium mobilization
T1 construct: expressed in transfected cells; host or cells: CHO cells (M1-CHO, under zeocin and G418 selection)
T1 sequence (P11229 1-460): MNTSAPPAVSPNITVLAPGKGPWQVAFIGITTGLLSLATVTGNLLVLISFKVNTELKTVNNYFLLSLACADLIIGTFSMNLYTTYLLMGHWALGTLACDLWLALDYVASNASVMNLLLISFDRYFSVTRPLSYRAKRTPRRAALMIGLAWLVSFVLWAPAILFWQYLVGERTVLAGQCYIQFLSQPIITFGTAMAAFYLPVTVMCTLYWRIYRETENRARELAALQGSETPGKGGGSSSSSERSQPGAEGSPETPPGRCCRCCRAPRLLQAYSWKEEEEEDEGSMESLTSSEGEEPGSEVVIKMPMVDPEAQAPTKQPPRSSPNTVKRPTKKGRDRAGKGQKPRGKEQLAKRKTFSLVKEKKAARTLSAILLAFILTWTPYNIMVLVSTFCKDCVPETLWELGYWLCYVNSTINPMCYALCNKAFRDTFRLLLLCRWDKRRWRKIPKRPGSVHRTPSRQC
In short: (§1)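 Fluo-3 read-out, ex 488/em 540 nm, 60 sec on FLIPR 3. For agonist mode, compound added directly; for inhibition, 15 min compound pre-incubation before carbachol at EC80 (added as a 3× solution), or co-application. Buffer pH 7.4 with 1 mM probenecid; DMSO 0.5%.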

M4 muscarinic receptor = target: T2, M4 muscarinic receptor (Homo sapiens, UniProt P08173); assay: Functional mobilization of intracellular calcium (FLIPR, Fluo-3), M4-CHO cells; type: cell-based; settings: compound nos. 1-454; for Emax: 100% efficacy is the maximum response obtained with the Carbachol control, read-out: M4 Efficacy; for M4 Activity: M4-CHO cells, calcium mobilization
T2 construct: expressed in transfected cells; host or cells: CHO cells (M4-CHO, under puromycin, zeocin and blasticidin selection)
T2 sequence (P08173 1-479): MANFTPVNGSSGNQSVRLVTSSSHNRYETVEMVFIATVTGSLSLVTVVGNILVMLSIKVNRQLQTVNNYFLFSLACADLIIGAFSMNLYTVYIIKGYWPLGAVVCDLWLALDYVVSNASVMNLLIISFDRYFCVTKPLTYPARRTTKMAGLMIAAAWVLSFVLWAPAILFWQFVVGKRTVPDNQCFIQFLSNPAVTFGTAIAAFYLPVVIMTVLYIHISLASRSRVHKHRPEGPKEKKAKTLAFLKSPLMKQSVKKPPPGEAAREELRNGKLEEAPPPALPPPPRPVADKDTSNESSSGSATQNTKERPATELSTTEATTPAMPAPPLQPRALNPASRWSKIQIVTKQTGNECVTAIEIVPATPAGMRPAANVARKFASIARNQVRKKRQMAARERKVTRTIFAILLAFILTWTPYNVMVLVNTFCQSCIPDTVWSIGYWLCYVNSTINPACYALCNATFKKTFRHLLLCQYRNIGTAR
In short: as §1

Structure (SMILES) | Emax (M1 muscarinic receptor) [%] | M1 Activity (M1 muscarinic receptor) | Emax (M4 muscarinic receptor) [%] | M4 Activity (M4 muscarinic receptor)
CC(=O)NC1CC2(CCN(CC3CC4C=CC3C4)CC2)c2ccccc21 (stereo not shown) [compound 180] | 65 to 85 | +++ (activity was measured to be less than or equal to 0.7 μM) | 55 to 70 | +++ (activity was measured to be less than or equal to 0.1 μM)
Clc1ccc2c(c1)C1(CCN([C@H]3C[C@@H]4CC[C@H]3C4)CC1)CO2 [compound 181] | 65 to 85 | ++ (activity was measured to be between 0.7 μM and 3.0 μM) | 55 to 70 | + (activity was measured to be greater than or equal to 4.0 μM)
COC(=O)N1CCC(CN2CCC3(CC2)C[C@H](NC(C)=O)c2ccccc23)CC1 [compound 182] | 65 to 85 | + (activity was measured to be greater than or equal to 3.0 μM) | 55 to 70 | + (activity was measured to be greater than or equal to 4.0 μM)
Fc1ccc2c(c1)C1(CCN(CC3CC4C=CC3C4)CC1)CN2 (stereo not shown) [compound 183] | 65 to 85 | ++ (activity was measured to be between 0.7 μM and 3.0 μM) | 55 to 70 | + (activity was measured to be greater than or equal to 4.0 μM)
CC(=O)N[C@H]1CC2(CCN(CC3CCCCC3)CC2)c2ccccc21 [compound 184] | > 85 | ++ (activity was measured to be between 0.7 μM and 3.0 μM) | 55 to 70 | + (activity was measured to be greater than or equal to 4.0 μM)
O=C(OCC(F)F)N1C2CCC1CC(N1CCC3(CC1)COc1ccc(F)cc13)C2 (stereo not shown) [compound 186] | > 85 | +++ (activity was measured to be less than or equal to 0.7 μM) | 55 to 70 | + (activity was measured to be greater than or equal to 4.0 μM)
CC(=O)N1CC2(CCN(CC3CCCC3)CC2)c2cc(F)ccc21 [compound 187] | 65 to 85 | ++ (activity was measured to be between 0.7 μM and 3.0 μM) | 55 to 70 | + (activity was measured to be greater than or equal to 4.0 μM)
CN(C)C(=O)N1CC2(CCN(C3CC4CCC(C3)N4C(=O)O[C@@H]3CCOC3)CC2)c2cc(F)ccc21 (stereo partly shown) [compound 188] | < 65 | + (activity was measured to be greater than or equal to 3.0 μM) | 55 to 70 | + (activity was measured to be greater than or equal to 4.0 μM)
CCOC(=O)N1C2CCC1CC(N1CCC3(CC1)CN(C(=O)c1cc(C)nn1C(C)(C)C)c1ccc(F)cc13)C2 (stereo not shown) [compound 189] | 65 to 85 | +++ (activity was measured to be less than or equal to 0.7 μM) | 55 to 70 | + (activity was measured to be greater than or equal to 4.0 μM)
CC(=O)N(C)[C@H]1CC2(CCN(C[C@H]3C[C@H]4CC[C@@H]3C4)CC2)c2ccccc21 [compound 190, N—((S)-1′-((1R,2S,4S)-bicyclo[2.2.1]heptan-2-ylmethyl)-2,3-dihydrospiro[indene-1,4′-piperidine]-3-yl)-N-methylacetamide] | > 85 | + (activity was measured to be greater than or equal to 3.0 μM) | 55 to 70 | + (activity was measured to be greater than or equal to 4.0 μM)
CCOC(=O)N1CCC(N2CCC3(CC2)C(=O)Nc2ccccc23)CC1 [compound 191] | 65 to 85 | +++ (activity was measured to be less than or equal to 0.7 μM) | 55 to 70 | + (activity was measured to be greater than or equal to 4.0 μM)
COC(=O)N1CC2(CCN(C3CC4CCC(C3)N4C(=O)O[C@@H]3CCOC3)CC2)c2cc(F)ccc21 (stereo partly shown) [compound 192] | 65 to 85 | +++ (activity was measured to be less than or equal to 0.7 μM) | 55 to 70 | + (activity was measured to be greater than or equal to 4.0 μM)
CCOC(=O)N1CCC(N2CCC3(CC2)CN(C(C)=O)c2ccc(-c4ccc(OC)cc4)cc23)CC1 [compound 193] | < 65 | + (activity was measured to be greater than or equal to 3.0 μM) | < 55 | + (activity was measured to be greater than or equal to 4.0 μM)
CCOC(=O)N1CCC(N2CCC3(CC2)CN(C(=O)CC(C)(C)C)c2ccc(F)cc23)CC1 [compound 194] | > 85 | +++ (activity was measured to be less than or equal to 0.7 μM) | 55 to 70 | + (activity was measured to be greater than or equal to 4.0 μM)
COCCOC(=O)N1CC2(CCN(C3CC4CCC(C3)N4C(=O)OC3CCC3)CC2)c2cc(F)ccc21 (stereo not shown) [compound 195] | < 65 | ++ (activity was measured to be between 0.7 μM and 3.0 μM) | < 55 | + (activity was measured to be greater than or equal to 4.0 μM)
CC(=O)N[C@H]1CC2(CCN(C3CCCCC3)CC2)c2ccccc21 [compound 196] | 65 to 85 | +++ (activity was measured to be less than or equal to 0.7 μM) | < 55 | + (activity was measured to be greater than or equal to 4.0 μM)
CCOC(=O)N1C2CCC1CC(N1CCC3(CC1)CN(C(=O)Nc1ccc(F)cc1)c1ccc(F)cc13)C2 (stereo not shown) [compound 197] | < 65 | ++ (activity was measured to be between 0.7 μM and 3.0 μM) | < 55 | + (activity was measured to be greater than or equal to 4.0 μM)
O=C(O[C@@H]1CCOC1)N1CC2(CCN(C3CC4CCC(C3)N4C(=O)O[C@H]3CCOC3)CC2)c2cc(F)ccc21 (stereo partly shown) [compound 198] | 65 to 85 | ++ (activity was measured to be between 0.7 μM and 3.0 μM) | < 55 | + (activity was measured to be greater than or equal to 4.0 μM)
CCOC(=O)N1C2CCC1CC(N1CCC3(CC1)C(=O)Nc1ccccc13)C2 (stereo not shown) [compound 199] | 65 to 85 | ++ (activity was measured to be between 0.7 μM and 3.0 μM) | < 55 | + (activity was measured to be greater than or equal to 4.0 μM)
CC=CCOC(=O)N1C2CCC1CC(N1CCC3(CC1)CN(C(=O)N(C)C)c1ccc(F)cc13)C2 (stereo not shown) [compound 200] | 65 to 85 | ++ (activity was measured to be between 0.7 μM and 3.0 μM) | < 55 | + (activity was measured to be greater than or equal to 4.0 μM)
CC(=O)N1CC2(CCN(CC3CCN(C(=O)OC(C)C)CC3)CC2)c2cc(F)ccc21 [compound 202] | 65 to 85 | ++ (activity was measured to be between 0.7 μM and 3.0 μM) | < 55 | + (activity was measured to be greater than or equal to 4.0 μM)
CN(C)C(=O)N1C2CCC1CC(N1CCC3(CC1)COc1ccc(F)cc13)C2 (stereo not shown) [compound 203] | 65 to 85 | +++ (activity was measured to be less than or equal to 0.7 μM) | < 55 | ++ (activity was measured to be between 0.1 μM and 4.0 μM)
Fc1ccc2c(c1)C1(CCN([C@H]3C[C@@H]4CC[C@@H]3C4)CC1)CO2 [compound 204] | 65 to 85 | +++ (activity was measured to be less than or equal to 0.7 μM) | < 55 | + (activity was measured to be greater than or equal to 4.0 μM)
CCOC(=O)N1C2CCC1CC(N1CCC3(CC1)CN(C(C)=O)c1ccccc13)C2 (stereo not shown) [compound 205] | < 65 | + (activity was measured to be greater than or equal to 3.0 μM) | < 55 | + (activity was measured to be greater than or equal to 4.0 μM)
CC(=O)N[C@H]1CC2(CCN(C3CCOCC3)CC2)c2ccccc21 [compound 206] | 65 to 85 | +++ (activity was measured to be less than or equal to 0.7 μM) | < 55 | + (activity was measured to be greater than or equal to 4.0 μM)

Source: patent publication US7858635B2 (priority 2005, dated 2010)
